Assay results taken from patent US20260199294A1, “PEPTIDE DRUG CONJUGATES” (Oncopeptides Innovation AB, priority 2022, published 2026).

Assays:
[1] = tested on: hPBMC (Human Peripheral blood mononuclear cells); test: In vitro cytotoxicity (CellTiter-Glo, 72 h) in hPBMC; format: cell-based; conditions: stimulated with PHA-M and IL-2
Experimental: (§1) All cells were cultivated in RPMI medium 1640 (IX). All media was supplemented with […] penicillin/streptomycin, 10% heat inactivated FBS, 0.1 mM Sodium Pyruvate, 1×MEM NEAA (ThermoFisher) and 1 mM HEPES. The DERL-2 cells had higher FBS (20%) and 40 ng/mL IL-2 was added. hPBMCs were thawed and allowed to acclimatise overnight and then stimulated with 10 µg/mL PHA-M and 40 ng/mL IL-2 for 4 hours before being exposed to test compounds. All cells, except for hPBMCs, were grown to reach log phase before being exposed to the test compounds.
(§2) Test compounds were dissolved in 100% DMSO and added to a 384 assay plate. Additional DMSO was added to maintain the same final DMSO concentration (0.2%) in all wells. 25 μL cell suspension with a concentration of 100000 cells/mL was added to each well. The cells were cultured in a CO2 incubator at 37° C. for 72 h. Plates were equilibrated to room temperature for 30 minutes before adding 20 μL CellTiter-Glo® 2.0 (Promega) reagent to all wells. The plate was then allowed to stabilize for 20 minutes before recording the luminescence (Em filter 700 nm) in an Envision plate reader.

[2] = tested on: MM.1S cells; test: Cellular retention/efflux: intracellular and extracellular concentrations by LC-MS/MS; format: in vitro ADME, human; conditions: MM.1S cells, 5, 15 and 60 min; metabolites measured after treatment with the parent Example compound
Experimental: Methods: MM.1S cells at 2×10^6 cells/mL were seeded at 250 μL per well in a 96-well plate. Cells were incubated in the presence of a test compound for 5, 15, and 60 min before pelleting cells by centrifugation at +4° C. for 5 min. Cell media was immediately harvested to a second plate and stored at −80° C. until further analysis. Pelleted cells were washed once with ice cold PBS before storage at −80° C. until further analysis.
Cells were lysed and protein in the media were precipitated using acetonitrile dimethylformamide, 9:1 containing internal standard. Samples were centrifuged and the supernatant was analyzed with LC-MS/MS (ACQUITY UPLC-Xevo TQ-S micro) to determine compound concentration.
Example compound 1, bendamustine and melphalan were used as test compounds.
Method: Method described in Biological example 3.
Example compounds 1, 2, 3, 4, 6, 7 and 10 were investigated. Intracellular metabolites are formed from all compounds tested. The compound used for cell treatment was metabolised to the ester-hydrolysed compound (here called Metabolite A) and to the amide-hydrolysed compound (called Metabolite B). The example compound structures and the structures of the two metabolites for the respective compounds were as shown in Table 4. The Metabolites B formed under the conditions tested were compounds with structure as Examples 17 and 18: […]

[3] = tested on: mitochondrial DNA (mtDNA) prepared from MM.1S cells; test: Direct DNA damage, PCR amplification with mtDNA primers; format: biochemical, human; conditions: 0.25 μM compound, 30 minutes at 37° C.
Experimental: (§3) Method: DNA was prepared from MM.1S cells by QIAGEN genomic tip 20/G according to protocol described in Furda et al., Methods Mol Biol, 2012. 1 μg of DNA was treated with 0.25 μM compound for 30 minutes at 37° C. DMSO was used as control treatment. 20 ng of the treated DNA was PCR amplified using Phusion Hot Start II High Fidelity PCR Master Mix (Thermo Scientific) and primers directed to either HPRT or primers directed to mitochondrial DNA (mtDNA) was used, generating 10.4 or 8.9 kb fragments, respectively. The PCR reactions were separated on a 1% agarose gel and visualized by ChemiDoc™ MP Imaging System (BioRad). Example compounds 1, 2 and 38 were investigated, as were compounds 18 and 20, which are metabolites of compound 1. They were compared with bendamustine, melphalan and DMSO control. The results for compounds 1, 2, 18 and 20 with the HPRT primers are shown in FIG. 4(A); the results with the mtDNA primers are shown in FIG. 4(B).

[4] = tested on: nuclear DNA (HPRT) prepared from MM.1S cells; test: Direct DNA damage, PCR amplification with HPRT primers; format: biochemical, human; conditions: 0.25 μM compound, 30 minutes at 37° C.
Experimental: as §3

[5] = tested on: BJ Fibroblasts (normal cells); test: In vitro cytotoxicity (CellTiter-Glo, 72 h) in BJ fibroblasts; format: cell-based, human
Experimental: as §1, §2

[6] = tested on: MM.1S cells; test: DNA fragmentation, APO-BrdU TUNEL assay by FACS; format: cell-based, human
Experimental: Method: 1×10^6 MM.1S cells (CRL-2974, ATCC) were treated with Example compound 1 or Bendamustine at 0.006, 0.06, 0.6 or 6 μM for 24 h. After incubation, the cells were washed with PBS (10010-015, Gibco), fixed in Flow Cytometry Fixation Buffer (FC004, R&D Systems) for 10 min and stored in 70% ethanol at −20° C. overnight. The deoxythymidine analog (BrdUTP) was present in the experiment and served to label the DNA break sites. Next day, the cells were washed and stained using an APO-BrdU™ TUNEL Assay Kit, according to the manufacturer's protocol (A23210, Invitrogen), followed by the analysis using BD FACSCanto™ II. The percentage ofTUNEL positive cells indicates the percentage of cells with fragmented DNA.

Compound | extracellular concentration (media) [2] | intracellular concentration [2] | DNA damage on mitochondrial DNA (8.9 kb PCR band) [3] | DNA damage on nuclear DNA (HPRT 10.4 kb PCR band) [4] | IC50 [5] | also measured
CCOC(=O)[C@H](Cc1nc2cc(N(CCCl)CCCl)ccc2n1C)NC(=O)[C@@H](N)CC(C)C [Example compound 10, Ethyl (2S)-2-[[(2S)-2-amino-4-methyl-pentanoyl]amino]-3-[5-[bis(2-chloroethyl)amino]-1-methyl-benzimidazol-2-yl]propanoate] | – | – | – | – | – | IC50 [1]: 0.0264 µM
Cl.Cl.Cn1c(CC[C@H](N)C(=O)O)nc2cc(N(CCCl)CCCl)ccc21 [Example compound 18, (S)-2-amino-4-(5-(bis(2-chloroethyl)amino)-1-methyl-1H-benzo[d]imidazol-2-yl)butanoic acid] | low levels of it are found in the media outside the cells | rapidly formed inside the cells | effectively damaged | effectively damaged | – | –
CCOC(=O)[C@H](CC(C)C)NC(=O)[C@@H](N)CCc1nc2cc(N(CCCl)CCCl)ccc2n1-c1ccccc1 [Example compound 13, Ethyl (2S)-2-[[(2S)-2-amino-4-[5-[bis(2-chloroethyl)amino]-1-phenyl-benzimidazol-2-yl]butanoyl]amino]-4-methyl-pentanoate] | – | – | – | – | > 2 µM | –
CCOC(=O)[C@H](Cc1ccc(F)cc1)NC(=O)[C@@H](N)CCc1nc2cc(N(CCCl)CCCl)ccc2n1C [Example compound 2, Ethyl (2S)-2-[[(2S)-2-amino-4-[5-[bis(2-chloroethyl)amino]-1-methyl-benzimidazol-2-yl]butanoyl]amino]-3-(4-fluorophenyl)propanoate] | – | – | strong DNA damaging effect | strong DNA damaging effect | – | IC50 [1]: 0.0075 µM
CCOC(=O)[C@H](Cc1ccc(F)cc1)NC(=O)[C@H](CCc1nc2cc(N(CCCl)CCCl)ccc2n1C)NC(C)=O [Example compound 34, Ethyl (2S)-2-[[(2S)-2-acetamido-4-[5-[bis(2-chloroethyl)amino]-1-methyl-benzimidazol-2-yl]butanoyl]amino]-3-(4-fluorophenyl)propanoate] | – | – | – | – | > 2 µM | –
CCOC(=O)[C@@H](N)CCc1nc2cc(N(CCCl)CCCl)ccc2n1C.Cl.Cl [Example compound 38, Ethyl (2S)-2-amino-4-[5-[bis(2-chloroethyl)amino]-1-methyl-benzimidazol-2-yl]butanoate] | – | – | effectively damaged | effectively damaged | – | –
CC(C)C[C@H](NC(=O)[C@@H](N)CCc1nc2cc(N(CCCl)CCCl)ccc2n1C)C(=O)N(C)C [Example compound 30, (2S)-2-[[(2S)-2-Amino-4-[5-[bis(2-chloroethyl)amino]-1-methyl-benzimidazol-2-yl]butanoyl]amino]-N,N,4-trimethyl-pentanamide] | – | – | – | – | > 2 µM | –
Cn1c(CCCC(=O)O)nc2cc(N(CCCl)CCCl)ccc21 [Bendamustine, reference compound] | quite high and decreased over time | Low intracellular concentrations could be detected of bendamustine and the level decreases over time | no or very minor effect on DNA damage | no or very minor effect on DNA damage | – | cells with DNA breaks ([6]; 0.6 μM for 24 h): not the case; dose response effect on DNA damage (TUNEL positive cells) ([6]; 0.006, 0.06, 0.6 or 6 μM for 24 h): no obvious effect
N[C@@H](Cc1ccc(N(CCCl)CCCl)cc1)C(=O)O [Melphalan, reference compound] | high and constant throughout the experiment | low intracellular concentration | no or very minor effect on DNA damage | no or very minor effect on DNA damage | – | –
CC(C)C[C@H](NC(=O)[C@@H](N)CCc1nc2cc(N(CCCl)CCCl)ccc2n1C)C(=O)O [Example compound 20, (2S)-2-[[(2S)-2-amino-4-[5-[bis(2-chloroethyl)amino]-1-methyl-benzimidazol-2-yl]butanoyl]amino]-4-methyl-pentanoic acid] | – | – | DNA damaging effect but to a lesser degree compared to Example compounds 1, 2 and 18, but greater than Bendamustine or Melphalan | DNA damaging effect but to a lesser degree compared to Example compounds 1, 2 and 18, but greater than Bendamustine or Melphalan | – | –
